# Assay results published in patent US8143293B2, “Kinase inhibitors useful for the treatment of myleoprolific diseases and other proliferative diseases” (Deciphera Pharmaceuticals, LLC, priority 2007, dated 2012).
# Numbering of substitutions follows the chain as printed.
# Experiments:
# [1] = biological target: T1, C-Met kinase (SEQ ID NO:10) (Homo sapiens, UniProt P08581); test: C-Met kinase (SEQ ID NO:10) assay, pyruvate kinase/lactate dehydrogenase coupled; details: 0.5 h preincubation, ATP 100 μM; read-out: Biochemical IC50, c-Met Enzyme Assay
# T1 construct: 956-1390, from Invitrogen, catalogue #PV3143; His6 (N-terminal leader MSYYHHHHHH... with TEV and thrombin sites) (N); purchased Invitrogen PV3143
# T1 sequence (P08581 with tags, fused parts or gaps): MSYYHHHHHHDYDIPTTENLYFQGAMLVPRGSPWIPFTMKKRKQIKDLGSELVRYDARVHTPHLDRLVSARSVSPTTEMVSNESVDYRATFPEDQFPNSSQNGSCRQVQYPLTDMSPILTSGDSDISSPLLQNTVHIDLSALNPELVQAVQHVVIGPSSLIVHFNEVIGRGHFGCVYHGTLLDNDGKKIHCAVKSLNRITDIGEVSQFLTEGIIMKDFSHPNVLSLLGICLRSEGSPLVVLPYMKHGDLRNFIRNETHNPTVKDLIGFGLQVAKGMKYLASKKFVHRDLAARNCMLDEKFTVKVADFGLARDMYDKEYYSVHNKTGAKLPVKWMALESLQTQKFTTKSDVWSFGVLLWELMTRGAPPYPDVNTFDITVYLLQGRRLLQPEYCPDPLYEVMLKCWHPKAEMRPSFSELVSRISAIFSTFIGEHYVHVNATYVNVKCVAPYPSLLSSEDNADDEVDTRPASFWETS
# Description: C-Met Kinase (SEQ ID NO:10) Assay
# Activity of C-Met kinase (SEQ ID NO:10) was determined by following the production of ADP from the kinase reaction through coupling with the pyruvate kinase/lactate dehydrogenase system (e.g., Schindler, et al. Science (2000) 289, 1938-1942). In this assay, the oxidation of NADH (thus the decrease at A340 nm) was continuously monitored spectrophometrically. The reaction mixture (100 μl) contained C-Met (c-Met residues; 956-1390, from Invitrogen, catalogue #PV3143, […]), polyE4Y (1 mg/ml), MgCl2 (10 mM), pyruvate kinase (4 units), lactate dehydrogenase (0.7 units), phosphoenol pyruvate (1 mM), and NADH (0.28 mM) in 90 mM Tris buffer containing 0.25 mM DTT, 0.2% octyl-glucoside and 1% DMSO, pH 7.5. Test compounds were incubated with C-Met (SEQ ID NO:10) and other reaction reagents at 22° C. for 0.5 h before ATP (100 μM) was added to start the reaction. The absorption at 340 nm was monitored continuously for 2 hours at 30° C. on Polarstar Optima plate reader (BMG). The reaction rate was calculated using the 1.0 to 2.0 h time frame. Percent inhibition was obtained by comparison of reaction rate with that of a control (i.e. with no test compound). IC50 values were calculated from a series of percent inhibition values determined at a range of inhibitor concentrations using software routines as implemented in the GraphPad Prism software package.
# [2] = biological target: T2, T315I Abl kinase (SEQ ID NO:2) (Homo sapiens, UniProt P00519, T315I); test: T315I Abl kinase (SEQ ID NO:2) assay, pyruvate kinase/lactate dehydrogenase coupled; details: 1 h preincubation, ATP 500 μM; read-out: Biochemical IC50, Abl T315I Enzyme Assay
# T2 construct: purchased deCode Genetics
# T2 sequence (P00519 with tags, fused parts or gaps T315I): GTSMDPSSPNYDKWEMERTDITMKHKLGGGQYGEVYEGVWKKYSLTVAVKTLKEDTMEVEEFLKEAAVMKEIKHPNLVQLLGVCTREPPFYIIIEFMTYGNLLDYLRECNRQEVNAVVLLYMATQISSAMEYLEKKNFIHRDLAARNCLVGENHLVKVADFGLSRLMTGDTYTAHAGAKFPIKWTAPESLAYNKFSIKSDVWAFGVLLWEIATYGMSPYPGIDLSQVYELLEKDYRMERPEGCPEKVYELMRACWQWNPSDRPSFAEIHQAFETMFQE
# Description: Abl Kinase (SEQ ID NO:2) Assay
# Activity of T315I Abl kinase (SEQ ID NO:2) was determined by following the production of ADP from the kinase reaction through coupling with the pyruvate kinase/lactate dehydrogenase system (e.g., Schindler, et al. Science (2000) 289, 1938-1942). In this assay, the oxidation of NADH (thus the decrease at A340 nm) was continuously monitored spectrophometrically. The reaction mixture (100 μl) contained Abl kinase (4.4 nM, […] Abl from deCode Genetics), peptide substrate (EAIYAAPFAKKK, 0.2 mM), MgCl2 (10 mM), pyruvate kinase (4 units), lactate dehydrogenase (0.7 units), phosphoenol pyruvate (1 mM), and NADH (0.28 mM) in 90 mM Tris buffer containing 0.2% octyl-glucoside and 1% DMSO, pH 7.5. Test compounds were incubated with T315I Abl (SEQ ID NO:2) and other reaction reagents at 30° C. for 1 h before ATP (500 μM) was added to start the reaction. The absorption at 340 nm was monitored continuously for 2 hours at 30° C. on Polarstar Optima plate reader (BMG). The reaction rate was calculated using the 1.0 to 2.0 h time frame. Percent inhibition was obtained by comparison of reaction rate with that of a control (i.e. with no test compound). IC50 values were calculated from a series of percent inhibition values determined at a range of inhibitor concentrations using software routines as implemented in the GraphPad Prism software package.
# [3] = biological target: T3, BaF3 cells transfected with wild type p210 BCR-Abl (Homo sapiens, UniProt P00519); test: Ba/F3 p210 whole cell proliferation assay; assay type: cell-based; details: 72 hours, Cell Titer Blue; read-out: Whole Cell Antiproliferation IC50, Ba/F3 p210 whole cell proliferation assay
# T3 construct: fused on or other part: P11274 (Breakpoint cluster region protein)
# Description: (§1) BaF3 cells (parental or transfected with the following: wild type p210 BCR-Abl and T315I p210 BCR-Abl was obtained from Professor Richard Van Etten (New England Medical Center, Boston, Mass.). Briefly, cells were grown in RPMI 1640 supplemented with 10% characterized fetal bovine serum (HyClone, Logan, Utah) at 37 degrees Celsius, 5% CO2, 95% humidity. Cells were allowed to expand until reaching 80% saturation at which point they were subcultured or harvested for assay use.
# (§2) A serial dilution of test compound was dispensed into a 96 well black clear bottom plate (Corning, Corning, N.Y.). For each cell line, three thousand cells were added per well in complete growth medium. Plates were incubated for 72 hours at 37 degrees Celsius, 5% CO2, 95% humidity. At the end of the incubation period Cell Titer Blue (Promega, Madison, Wis.) was added to each well and an additional 4.5 hour incubation at 37 degrees Celsius, 5% CO2, 95% humidity was performed. Plates were then read on a BMG Fluostar Optima (BMG, Durham, N.C.) using an excitation of 544 nm and an emission of 612 nm. Data was analyzed using Prism software (Graphpad, San Diego, Calif.) to calculate IC50's.
# [4] = biological target: T4, BaF3 cells transfected with T315I p210 BCR-Abl (Homo sapiens, UniProt P00519, T315I, cells depend on it); test: Ba/F3 p210 T315I whole cell proliferation assay; assay type: cell-based; details: 72 hours, Cell Titer Blue; read-out: Whole Cell Antiproliferation IC50, Ba/F3 p210 T315I whole cell proliferation assay
# T4 construct: fused on or other part: P11274 (Breakpoint cluster region protein)
# Description: as §1, §2
# [5] = biological target: T5, Abl kinase (SEQ ID NO: 1) (Homo sapiens, UniProt P00519); test: Abl kinase (SEQ ID NO:1) assay, pyruvate kinase/lactate dehydrogenase coupled; details: 2 h preincubation, ATP 500 μM; read-out: Biochemical IC50, Abl Enzyme Assay
# T5 construct: purchased deCode Genetics
# T5 sequence (P00519 with tags, fused parts or gaps): T2 sequence (P00519 with tags, fused parts or gaps T315I) with I94T
# Description: Abl Kinase (SEQ ID NO:1) Assay
# Activity of Abl kinase (SEQ ID NO: 1) was determined by following the production of ADP from the kinase reaction through coupling with the pyruvate kinase/lactate dehydrogenase system (e.g., Schindler, et al. Science (2000) 289, 1938-1942). In this assay, the oxidation of NADH (thus the decrease at A340 nm) was continuously monitored spectrophometrically. The reaction mixture (100 μl) contained Abl kinase (1 nM. Abl from deCode Genetics), peptide substrate (EAIYAAPFAKKK, 0.2 mM), MgCl2 (10 mM), pyruvate kinase (4 units), lactate dehydrogenase (0.7 units), phosphoenol pyruvate (1 mM), and NADH (0.28 mM) in 90 mM Tris buffer containing 0.2% octyl-glucoside and 3.5% DMSO, pH 7.5. Test compounds were incubated with Abl (SEQ ID NO:1) and other reaction reagents at 30° C. for 2 h before ATP (500 μM) was added to start the reaction. The absorption at 340 nm was monitored continuously for 2 hours at 30° C. on Polarstar Optima plate reader (BMG). The reaction rate was calculated using the 1.0 to 2.0 h time frame. Percent inhibition was obtained by comparison of reaction rate with that of a control (i.e. with no test compound). IC50 values were calculated from a series of percent inhibition values determined at a range of inhibitor concentrations using software routines as implemented in the GraphPad Prism software package.
Molecule,IC50 [1] [nM],IC50 [2] [nM],GI50 [3] [nM],GI50 [4] [nM],IC50 [5] [nM]
1-(3-cyclopentylisoxazol-5-yl)-3-(2-fluoro-4-(2-(1-methyl-1H-pyrazol-4-yl)pyridin-4-yloxy)phenyl)urea [Example 13],< 1000,< 10000,< 100,< 100,< 100
"Cn1cc(-c2cc(Oc3ccc(NC(=O)Nc4cc(C(C)(C)C)on4)c(F)c3)ccn2)cn1 [Example 4, 1-(5-t-butylisoxazol-3-yl)-3-(2-fluoro-4-(2-(1-methyl-1H-pyrazol-4-yl)pyridin-4-yloxy)phenyl)urea]",< 1000,< 100,< 100,< 100,< 100
"Cn1cc(-c2cc(Oc3ccc(NC(=O)Nc4cc(C(F)(F)F)no4)c(F)c3)ccn2)cn1 [Example 7, 1-(2-fluoro-4-(2-(1-methyl-1H-pyrazol-4-yl)pyridin-4-yloxy)phenyl)-3-(3-(trifluoromethyl)isoxazol-5-yl)urea]",< 10000,< 100,< 100,< 1000,< 100
"Cn1cc(-c2cc(Oc3ccc(NC(=O)Nc4cc(C(F)(F)F)nn4C)c(F)c3)ccn2)cn1 [Example 16, 1-(2-fluoro-4-(2-(1-methyl-1H-pyrazol-4-yl)pyridin-4-yloxy)phenyl)-3-(1-methyl-3-(trifluoromethyl)-1H-pyrazol-5-yl)urea]",< 10000,< 1000,< 100,< 1000,< 100
"Cc1c(Oc2ccnc(-c3cnn(C)c3)c2)ccc(NC(=O)Nc2cnn(C(C)(C)C)c2)c1F [Example 17, 1-(1-tert-butyl-1H-pyrazol-4-yl)-3-(2-fluoro-3-methyl-4-(2-(1-methyl-1H-pyrazol-4-yl)pyridin-4-yloxy)phenyl)urea]",< 1000,< 100,< 100,< 100,< 100
"Cc1c(NC(=O)Nc2ccc(Oc3ccnc(-c4cnn(C)c4)c3)cc2F)cnn1C(C)C [Example 19, 1-(2-fluoro-4-(2-(1-methyl-1H-pyrazol-4-yl)pyridin-4-yloxy)phenyl)-3-(1-isopropyl-5-methyl-1H-pyrazol-4-yl)urea]",< 10000,< 1000,< 100,< 10000,< 1000
"Cc1nn(C(C)C)cc1NC(=O)Nc1ccc(Oc2ccnc(-c3cnn(C)c3)c2)cc1F [Example 20, 1-(2-fluoro-4-(2-(1-methyl-1H-pyrazol-4-yl)pyridin-4-yloxy)phenyl)-3-(1-isopropyl-3-methyl-1H-pyrazol-4-yl)urea]",< 10000,< 100,< 100,< 1000,< 100
"Cn1cc(-c2cc(Oc3ccc(NC(=O)Nc4ccn(C(C)(C)C)c4)c(F)c3)ccn2)cn1 [Example 30, 1-(1-tert-butyl-1H-pyrrol-3-yl)-3-(2-fluoro-4-(2-(1-methyl-1H-pyrazol-4-yl)pyridin-4-yloxy)phenyl)urea]",< 10000,< 100,< 100,< 1000,< 100
tert-butyl 4-(2-tert-butyl-5-(3-(2-fluoro-4-(2-(1-methyl-1H-pyrazol-4-yl)pyridin-4-yloxy)phenyl)ureido)pyrimidin-4-yl)piperazine-1-carboxylate [Example 40],< 100000,< 1000,< 1000,< 1000,< 100
